Data on 22 compounds can be found in PubChem BioAssay AID634 (Vanderbilt High Throughput Screening Facility, 2007).

The source made the active and inactive calls. No rule for the calls is given here.

The target in the assay is Voltage-gated potassium channel subunit beta-2 (Rattus norvegicus) (UniProt P62483). Kind of assay: KvBeta positive modulator confirmation, biochemical (AID 634). The following applies: Rat Kvbeta2 enzymatic assay, slope read-out; active compounds read low.
Sequence of Voltage-gated potassium channel subunit beta-2 (Rattus norvegicus) (P62483 whole entry, looked up): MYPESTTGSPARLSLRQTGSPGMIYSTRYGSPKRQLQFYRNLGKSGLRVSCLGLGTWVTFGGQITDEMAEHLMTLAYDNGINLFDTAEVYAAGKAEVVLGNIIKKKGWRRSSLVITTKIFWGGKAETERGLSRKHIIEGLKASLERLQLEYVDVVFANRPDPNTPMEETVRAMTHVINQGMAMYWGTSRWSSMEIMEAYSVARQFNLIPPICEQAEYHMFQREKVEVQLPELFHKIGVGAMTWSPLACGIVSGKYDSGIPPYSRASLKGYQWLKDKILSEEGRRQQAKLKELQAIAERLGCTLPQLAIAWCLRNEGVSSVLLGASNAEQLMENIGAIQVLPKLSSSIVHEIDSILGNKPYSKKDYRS
Regarding `CCCCCC#CCC#CCC#CCC#CCCCC(=O)O`, the slope was -0.0283 (inactive).

On to `CCOC(=O)C1=C(N)OC(C)=C(C(=O)OCCOC)C12C(=O)Nc1ccccc12` (configuration not stated), for which the slope is 0.0877 (inactive).

In the case of `CCOc1ccccc1Nc1nc2ccccc2[nH]1`, the slope was 0.0352 (inactive).

For `Cn1c(SCC(=O)Nc2ccc3c(c2)oc2ccccc23)nnc1-c1ccccc1`, the slope is 0.119 (inactive).

For the compound `C=CCn1c(SCC(=O)NCC2CCCO2)nc2scc(-c3ccco3)c2c1=O` (configuration not stated), the slope is 0.0642 (inactive).

For the compound `CC(=O)Oc1ccc2c(C)cc(=O)[nH]c2c1`, the slope is 0.0957 (inactive).

As for `CN1C(=S)SC(C)(NO)C1(C)C` (configuration not stated), the slope was -0.536.

`CCn1cc(C(=O)Nc2cc3c(cc2NC(C)=O)OCCO3)c(=O)c2ccc(C)nc21`: the slope was 0.112 (inactive).

As to `O=C(NCc1cccs1)C(Cc1ccccc1)NS(=O)(=O)c1cccs1` (configuration not stated), the slope is 0.0568 (inactive).

Consider `Cc1ccc(N2C(=O)C3ON(c4ccccc4)C(c4ccncc4)C3C2=O)cc1` (configuration not stated), for which the slope is 0.0514 (inactive).

Regarding `O=C(C1=C(O)C(=O)N(CCCN2CCOCC2)C1c1ccccn1)c1cc2ccccc2o1` (configuration not stated), the slope is 0.134 (inactive).

Regarding `CCOC(=O)CNC(=O)Nc1ccccc1C(=O)OC`, the slope is 0.092 (inactive).

As to `COc1cccc(Oc2ccc(N)cc2)c1`, the slope was 0.062 (inactive).

On to `NS(=O)(=O)c1cc2c(cc1Cl)NC=NS2(=O)=O`, for which the slope was 0.0676 (inactive).

For `O=c1c2ccccc2[se]n1-c1ccccc1`, the slope is -0.798.

In the case of `CC(c1ccco1)N(C(=O)c1ccc(S(=O)(=O)N2CCCCC2)cc1)c1ccccn1` (configuration not stated), the slope was 0.0766 (inactive).

As for `CC(O)CNc1nc2c(c(=O)n(C)c(=O)n2C)n1CCc1ccccc1` (configuration not stated), the slope is 0.0661 (inactive).

`Cc1ccc2c(c1)[C@@H]1CN(C)CC[C@@H]1N2C(=O)Nc1cccc(C(F)(F)F)c1`: the slope is -0.0275 (inactive).

For `COc1ccccc1C1/C(=C(/O)c2ccc(OC(C)C)cc2)C(=O)C(=O)N1c1cc(C)on1` (configuration not stated), the slope is 0.0306 (inactive).

For `CCCCOc1ccc(-c2nnn(C(C)(C)C(=O)OC)n2)cc1`, the slope is 0.0535 (inactive).

For the compound `O=C(NCCC1=CCCCC1)N[C@@H](Cc1ccccc1)C(=O)O`, the slope is 0.0842 (inactive).

`CCN(CC)CCCn1c(=S)[nH]c2cc(Cl)ccc2c1=O`: the slope was 0.133 (inactive).
